Test results: patent US20120315342A1, “EPITHELIAL CELL-CELL ADHESION ENHANCER, AND AMELIORATING, THERAPEUTIC OR PROPHYLACTIC AGENT FOR ALLERGIC DISEASES USING SAME” (Tokai Medical Test Laboratory Co., priority 2010, published 2012)

Experiments:
Type in all cases: cell-based
Caco-2 cells [1] = experiment: Inhibition of TEER decrease caused by inflammatory cytokine IL-1β (Example 6)
Description: (§1) The oligosaccharide containing 1-kestose used in the present Example 1 is composed of 98 wt. % 1-kestose, 1 wt. % nystose, and 1 wt. % sucrose. Namely, it is an oligosaccharide containing 1-kestose at a purity of 98 wt. %. Also, as the index for the cell-cell adhesion strength in cultured cells, transepithelial electrical resistance (TEER) was used. This measurement method utilizes a property that the stronger the epithelial cell-cell adhesion, the bigger the electrical resistance value between the upper layer and the lower layer of the cell culture medium, and this technique is also employed for a model experiment using epithelial cells and the like.
Caco-2 cells, which are the epithelial colorectal carcinoma cells, were subcultured in a 10% FES-containing DMEM medium (GIBCO), and the 48th generation of cultured cells were cryopreserved and used for the following experiments. […]
To the upper layer of a DMEM medium in which the Caco-2 cells were cultured until TEER of the Transwell reached 400 to 500 Ω·cm^2, an oligosaccharide containing 1-kestose was added at a concentration of 1 wt. %. […] TEER was measured 48 hours later and a ratio of the value thus measured to the initial measured value of TEER was calculated (1% kestose (+), IL-1β(+) group, n=3). […]

Caco-2 cells [2] = experiment: Lucifer Yellow permeation from upper to lower layer after extracellular calcium deficiency (Example 5); settings: Example 5, FIG. 6, 3 h; for residual concentration of Lucifer Yellow in the lower layer compared to the negative control group: 1 wt. % in calcium-containing medium, Lucifer Yellow in upper layer
Procedure: (§2) Caco-2 cells, which are the epithelial colorectal carcinoma cells, were subcultured in a 10% FES-containing DMEM medium (GIBCO), and the 48th generation of cultured cells were cryopreserved and used for the following experiments. The Caco-2 cells were seeded in the upper layer of a Transwell (Corning Life Sciences) and cultured in an incubator in 5% CO2 at 37° C. in the presence of a 10% FBS-containing DMEM medium. Cell culture was performed until the electrical resistance between the upper layer and the lower layer of the Transwell (TEER) reached 400 to 500 Ω·cm^2.
The Caco-2 cells that were cultured until TEER of the Transwell reached 400 to 500 Ω·cm^2 were cultured for two hours after exchanging the 10% FBS-containing DMEM medium for a calcium-free colorless HESS medium (GIBCO). Subsequently, a calcium-containing colorless HESS medium (GIBCO) to which an oligosaccharide containing 1-kestose, sucrose, or nystose was added at a concentration of 1 wt. % was added to the upper layer. At the same time, Lucifer Yellow (MP Biomedical LLC.) was added to the upper layer at a concentration of […] as a substance passing between the cells. After culturing for three hours, the HBSS medium in the lower layer was collected, and the residual concentration of Lucifer Yellow that had permeated from the upper layer to the lower layer was measured (1% kestose group, 1% sucrose group, and 1% nystose group, n=3). As the control group, a group of cells cultured only in a calcium-free HBSS medium (negative control group, n=3) and a group in which culture was performed for two hours in a calcium-free HBSS medium, and then the medium was only exchanged for a calcium-containing HBSS medium (positive control group, n=3) were prepared, and the amounts of substances that passed between the cells were compared.

Caco-2 cells [3] = experiment: Prior administration of 1-kestose, inhibition of TEER decrease caused by extracellular calcium deficiency (Example 4); settings: for TEER right before exchanging the medium for calcium-free DMEM, versus negative and positive control groups: 1 wt. %; for decrease in TEER after exchange for calcium-free DMEM and elimination of 1-kestose, versus negative control group: 1 wt. % prior administration
Description: as §1, §2
The Caco-2 cells were cultured until TEER of the Transwell reached 400 to 500 Ω·cm^2. The 10% FES-containing DMEM medium was exchanged for a […] DMEM medium, and an oligosaccharide containing 1-kestose was added at a concentration of 1 wt. % to the upper layer. The medium was exchanged for a calcium-free medium one hour or six hours later, and TEER was chronologically measured three times, every half hour (1-hour calcium (+) 1% kestose group, 6-hour calcium (+) 1% kestose group, n=3). As the control group, a group in which culture was performed for one hour or six hours in a calcium- containing DMEM medium, and then in a calcium-free DMEM medium (1-hour calcium (+) negative control group, 6-hour calcium (+) negative control group, n=3) and a group of cells that were cultured only in a calcium-containing DMEM medium (positive control group, n=3) were prepared, and chronological changes in TEER were compared.

Caco-2 cells [4] = experiment: Recovery of TEER after decreased epithelial cell-cell adhesion caused by extracellular calcium deficiency (Examples 1-3); settings: for recovery of TEER in comparison with the negative control group / recovery-promoting effect on TEER in comparison with the positive control group: Example 1, FIG. 1, 1 wt. % in calcium-containing DMEM after 2 h calcium-free DMEM, n=3
Description: as §1, §2
The Caco-2 cells that were cultured until TEER of the Transwell reached 400 to 500 Ω·cm^2 were cultured for two hours after exchanging the 10% FES-containing DMEM medium for a calcium-free DMEM medium. Subsequently, a calcium-containing DMEM medium to which an oligosaccharide containing 1-kestose, or nystose, was added at a concentration of 1 wt. % was added to the upper layer. Then, TEER was chronologically measured every half hour, and the cells were cultured up to 22 hours and then TEER was measured (1% kestose group, 1% nystose group, n=3). As the control group, a group of cells that were cultured only in a calcium-free DMEM medium (negative control group, n=3) and a group in which culture was performed for two hours in a calcium-free DMEM medium, and then the medium was only exchanged for a calcium-containing DMEM medium (positive control group, n=3) were prepared, and chronological changes in TEER were compared.
The Caco-2 cells that were cultured until TEER of the Transwell reached 400 to 500 Ω·cm^2 were cultured for two hours after exchanging the 10% FBS-containing DMEM medium for a calcium-free DMEM medium. Subsequently, a calcium-containing DMEM medium to which an oligosaccharide containing 1-kestose was added at a concentration of 1 wt. % was added to the upper layer. Then, TEER was chronologically measured every half hour, and the cells were cultured up to three hours and then TEER was measured (calcium (+) 1% kestose group, n=3). Also, a group in which an oligosaccharide containing 1-kestose was added at a concentration of 1 wt. % to the calcium-free DMEM medium, while the medium was not exchanged for a calcium-containing DMEM medium, and cell culture was performed up to three hours and then TEER was measured was prepared (calcium (−) 1% kestose group, n=3). As the control group, a group of cells that were cultured only in a calcium-free DMEM medium (negative control group, n=3) and a group in which culture was performed for two hours in a calcium-free DMEM medium, and then the medium was only exchanged for a calcium-containing DMEM medium (positive control group, n=3) were prepared, and chronological changes in TEER were compared.
The Caco-2 cells that were cultured until TEER of the Transwell reached 400 to 500 Ω·cm^2 were cultured for two hours after exchanging the 10% FBS-containing DMEM medium for a calcium-free DMEM medium. Subsequently, a calcium-containing DMEM medium to which an oligosaccharide containing 1-kestose was added at a concentration of 1 wt. % or 0.1 wt. % was added to the upper layer. Then, TEER was chronologically measured every half hour, and the cells were cultured up to 3.5 hours and then TEER was measured (1% kestose group, 0.1% kestose group, n=3). […]

[5] = Example 4, FIG. 4, 1-hour calcium (+)
[6] = Example 4, FIG. 5, 6-hour calcium (+)

Row | SMILES | average TEER ratio (to the initial measured value of TEER) (Caco-2 cells [1]; Example 6, FIG. 7, 1 wt. % for 24 h, then IL-1β 10 ng/mL in lower layer, measured 48 h later, n=3) | inhibition of the decrease of TEER (Caco-2 cells [1]; Example 6, 1 wt. %, IL-1β 10 ng/mL, 48 h) | residual concentration of Lucifer Yellow in the lower layer compared to the negative control group (Caco-2 cells [2]) | residual concentration of Lucifer Yellow in the lower layer compared to the positive control group (Caco-2 cells [2]; 1 wt. %) | residual concentration of Lucifer Yellow in the lower layer, rank among all groups (Caco-2 cells [2]; 1 wt. %) | TEER right before exchanging the medium for calcium-free DMEM, versus negative and positive control groups (Caco-2 cells [3]; [5]) | decrease in TEER after exchange for calcium-free DMEM and elimination of 1-kestose, versus negative control group (Caco-2 cells [3]; [5]) | TEER right before exchanging the medium for calcium-free DMEM, versus negative and positive control groups (Caco-2 cells [3]; [6]) | decrease in TEER after exchange for calcium-free DMEM and elimination of 1-kestose, versus negative control group (Caco-2 cells [3]; [6]) | recovery of TEER in comparison with the negative control group (Caco-2 cells [4]) | recovery-promoting effect on TEER in comparison with the positive control group (Caco-2 cells [4]) | promotion of TEER recovery compared to the 1% nystose group (Caco-2 cells [4]; Example 1, 1 wt. %) | recovery-promoting effect relative to the positive control group, on average (Caco-2 cells [4]; Example 1, 1 wt. %, 30 minutes after exchanging calcium-free for calcium-containing DMEM) [times] | effect of promoting recovery of TEER in comparison with the positive control group (Caco-2 cells [4]; Example 2, FIG. 2, calcium (+), 1 wt. %) | recovery of TEER (Caco-2 cells [4]; Example 2, FIG. 2, calcium (+), 1 wt. % in calcium-containing DMEM, up to 3 h) | recovery of TEER (Caco-2 cells [4]; Example 2, FIG. 2, calcium (−), 1 wt. % in calcium-free DMEM, up to 3 h) | recovery of TEER (Caco-2 cells [4]; Example 3, FIG. 3, 0.1 wt. % in calcium-containing DMEM, up to 3.5 h) | promotion of recovery of TEER, 1% group versus 0.1% group (Caco-2 cells [4]; Example 3, FIG. 3, 1 wt. % compared with 0.1 wt. %) | recovery of TEER (Caco-2 cells [4]; Example 3, FIG. 3, 1 wt. % in calcium-containing DMEM, up to 3.5 h)
1 | OC[C@H]1O[C@@](CO)(OC[C@@]2(O[C@H]3O[C@H](CO)[C@@H](O)[C@H](O)[C@H]3O)O[C@H](CO)[C@@H](O)[C@@H]2O)[C@@H](O)[C@@H]1O [1-kestose] | 0.849 | approximately 26% | significant reduction in the residual concentration | further reduced residual concentrations | lowest residual concentration | significant increase in TEER | tendency that a decrease in TEER in the 1-hour calcium (+) 1% kestose group was inhibited | significant increase in TEER | tendency that a decrease in TEER in the 6-hour calcium (+) 1% kestose group was inhibited | significant recovery of TEER | significant recovery-promoting effect | tendency of stronger promotion of recovery | 2.4 | significant effect of promoting recovery of TEER | significant recovery of TEER | Recovery of TEER was hardly observed | significant recovery of TEER | tendency of stronger promotion of recovery of TEER | significant recovery of TEER
2 | OC[C@H]1O[C@@](CO)(OC[C@@]2(OC[C@@]3(O[C@H]4O[C@H](CO)[C@@H](O)[C@H](O)[C@H]4O)O[C@H](CO)[C@@H](O)[C@@H]3O)O[C@H](CO)[C@@H](O)[C@@H]2O)[C@@H](O)[C@@H]1O [nystose] |  |  | significant reduction in the residual concentration | further reduced residual concentrations |  |  |  |  |  | significant recovery of TEER | significant recovery-promoting effect |  |  |  |  |  |  |  | 
